Measurements from patent publication US20250136594A1 (Tango Therapeutics, Inc., priority 2022, published 2025).
pIC50: −log10 of the molar value. Where two headings read alike, the source gives them in different places.

What was measured:
[1] = tested on: HAP1 MTAP-deleted cell line; assay: Viability assay, HAP1 MTAP-deleted cell line; assay type: cell-based; settings: viability assay, HAP1 MTAP-deleted cell line, read-out: Hap1 MTAP deleted viability IC50
[2] = tested on: SDMA in HAP1 MTAP-intact cell line (PRMT5 inhibition); assay: SDMA in-cell western assay, HAP1 MTAP-intact cell line
[3] = tested on: SDMA in HAP1 MTAP-deleted (MTAP-null) cell line (PRMT5 inhibition); assay: SDMA in-cell western assay, HAP1 MTAP-deleted cell line; settings: for Hap1 MTAP intact/deleted ratio: ratio of SDMA IC50 in HAP1 MTAP-intact to HAP1 MTAP-deleted cell line
[4] = Homo sapiens, HAP1, read-out: Hap1 MTAP intact IC50
[5] = Homo sapiens, HAP1, read-out: Hap1 MTAP deleted IC50
[6] = Homo sapiens, HAP1, read-out: Hap1 MTAP deleted IC90

Structure (SMILES) | pIC50 ([1]; Homo sapiens) | pIC50 [2, 4] | pIC50 [3, 5] | IC90 [3, 6] [nM] | Hap1 MTAP intact/deleted ratio [3] | pIC50 [1] | pIC50 ([2]; read-out: Hap1 MTAP intact IC50, SDMA in-cell western, HAP1 MTAP-intact cell line) | pIC50 ([3]; read-out: Hap1 MTAP deleted IC50, SDMA in-cell western, HAP1 MTAP-deleted cell line) | IC90 ([3]; read-out: Hap1 MTAP deleted IC90, SDMA in-cell western, HAP1 MTAP-deleted cell line) [nM]
Cc1cc(NC(=O)C(=O)N(Cc2ccc(C(F)(F)F)cn2)C(C)c2ncccn2)cnc1N (racemic) [Compound 16, N-(6-amino-5-methyl-3-pyridyl)-N′-(1-pyrimidin-2-ylethyl)-N′-[[5-(trifluoromethyl)-2-pyridyl]methyl]oxamide] | 6.00 to 7.00 | 7.30 to 8.30 | 7.30 to 8.30 | > 125 | C (IC50 ratio of less than 15 fold) |  |  |  | 
O=C(Nc1ccn2ccnc2c1)C(=O)N(Cc1ccc(C(F)(F)F)cn1)[C@@H]1CCC[C@H]1OC(F)F (racemic) [Compound 41, N1-((1R,2R)-2-(difluoromethoxy)cyclopentyl)-N^2-(imidazo[1,2-a]pyridin-7-yl)-N^1-((5-(trifluoromethyl)pyridin-2-yl)methyl)oxalamide] | 6.00 to 7.00 | < 7.30 | 7.30 to 8.30 | > 125 | A (IC50 ratio greater than or equal to 30 fold) |  |  |  | 
Nc1ncc(NC(=O)C(=O)N(Cc2ccccc2)C2CCCc3ccccc32)c2[nH]ncc12 (racemic) [Compound 141, rac-N-(4-Amino-1H-pyrazolo[4,3-c]pyridin-7-yl)-N′-benzyl-N′-tetralin-1-yl-oxamide] | > 7.00 | 7.30 to 8.30 | > 8.30 | < 75 | C (IC50 ratio of less than 15 fold) |  |  |  | 
CC(c1ccc(C(F)(F)F)cn1)N(C)C(=O)C(=O)Nc1cnc(N)c2cn[nH]c12 (racemic) [Compound 178, N-(4-amino-1H-pyrazolo[4,3-c]pyridin-7-yl)-N′-methyl-N′-[1-[5-(trifluoromethyl)-2-pyridyl]ethyl]oxamide] | 6.00 to 7.00 | < 7.30 | > 8.30 | < 75 | A (IC50 ratio greater than or equal to 30 fold) |  |  |  | 
Cc1cccnc1CN(C(=O)C(=O)Nc1cnc(N)c2cn[nH]c12)C(C)C(C)C (single isomer, unassigned) [Compound 106] | > 7.00 | 7.30 to 8.30 | > 8.30 | < 75 | C (IC50 ratio of less than 15 fold) |  |  |  | 
Cc1cccnc1CN(C(=O)C(=O)Nc1cnc(N)c2cn[nH]c12)C(C)C(C)C (single isomer, unassigned) [Compound 171] |  |  |  |  | C (IC50 ratio of less than 15 fold) | > 7.00 | 7.30 to 8.30 | > 8.30 | < 75
C[C@@H](c1ncccn1)N(Cc1ccc(C(F)(F)F)cn1)C(=O)C(=O)Nc1cnc(N)c2cn[nH]c12 (stereo in doubt) [Compound 50, N-(4-amino-1H-pyrazolo[4,3-c]pyridin-7-yl)-N′-(1-pyrimidin-2-ylethyl)-N′-[[5-(trifluoromethyl)-2-pyridyl]methyl]oxamide] | > 7.00 | 7.30 to 8.30 | > 8.30 | < 75 | C (IC50 ratio of less than 15 fold) |  |  |  | 
Cc1cc(NC(=O)C(=O)N(Cc2ccc(C(F)(F)F)cn2)[C@@H]2CC[C@@H](C)c3ccccc32)cnc1N (stereo in doubt) [Compound 51, N-(6-amino-5-methyl-3-pyridyl)-N′-(4-methyltetralin-1-yl)-N′-[[5-(trifluoromethyl)-2-pyridyl]methyl]oxamide] | > 7.00 | 7.30 to 8.30 | > 8.30 | < 75 | C (IC50 ratio of less than 15 fold) |  |  |  | 
Nc1ncc(NC(=O)C(=O)N(Cc2cc(F)cc(F)c2)Cc2cc(F)cc(F)c2)c2[nH]ncc12 [Compound 2, N-(4-amino-1H-pyrazolo[4,3-c]pyridin-7-yl)-N′,N′-bis[(3,5-difluorophenyl)methyl]oxamide] | 6.00 to 7.00 | < 7.30 | 7.30 to 8.30 | > 125 | A (IC50 ratio greater than or equal to 30 fold) |  |  |  | 
CC1CCC(N(Cc2ccc(C(F)(F)F)cn2)C(=O)C(=O)Nc2cnc(N)c3cn[nH]c23)c2ccccc21 (stereo not drawn) [Compound 3, N1-(4-amino-1H-pyrazolo[4,3-c]pyridin-7-yl)-N^2-(4-methyl-1,2,3,4-tetrahydronaphthalen-1-yl)-N^2-((5-(trifluoromethyl)pyridin-2-yl)methyl)oxalamide] | > 7.00 | 7.30 to 8.30 | 7.30 to 8.30 | < 75 | C (IC50 ratio of less than 15 fold) |  |  |  | 
Nc1ncc(NC(=O)C(=O)N(Cc2ccc(C(F)(F)F)cn2)[C@@H]2CCC[C@H]2OC(F)F)cc1C1CC1 [Compound 4, N1-(6-amino-5-cyclopropylpyridin-3-yl)-N^2-((1R,2R)-2-(difluoromethoxy)cyclopentyl)-N^2-((5-(trifluoromethyl)pyridin-2-yl)methyl)oxalamide] | 6.00 to 7.00 | < 7.30 | 7.30 to 8.30 | 75 to 125 | A (IC50 ratio greater than or equal to 30 fold) |  |  |  | 
COC[C@@H](C1CC1)N(Cc1ccc(C(F)(F)F)cn1)C(=O)C(=O)Nc1cnc(N)c(C)c1 [Compound 5, (R)—N^1-(6-amino-5-methylpyridin-3-yl)-N^2-(1-cyclopropyl-2-methoxyethyl)-N^2-((5-(trifluoromethyl)pyridin-2-yl)methyl)oxalamide] | > 7.00 | 7.30 to 8.30 | 7.30 to 8.30 | < 75 | C (IC50 ratio of less than 15 fold) |  |  |  | 
Cc1cc(NC(=O)C(=O)N(Cc2ccc(C(F)(F)F)cn2)[C@H](C)c2ncccn2)cnc1N [Compound 6, N-(6-amino-5-methyl-3-pyridyl)-N′—[(1R)-1-pyrimidin-2-ylethyl]-N′-[[5-(trifluoromethyl)-2-pyridyl]methyl]oxamide] | 6.00 to 7.00 | > 8.30 | > 8.30 | > 125 | C (IC50 ratio of less than 15 fold) |  |  |  | 
CCc1cc(NC(=O)C(=O)N(Cc2ccc(C(F)(F)F)cn2)[C@@H](COC)C2CC2)cnc1N [Compound 7, (R)—N^1-(6-amino-5-ethylpyridin-3-yl)-N^2-(1-cyclopropyl-2-methoxyethyl)-N^2-((5-(trifluoromethyl)pyridin-2-yl)methyl)oxalamide] | 6.00 to 7.00 | < 7.30 | 7.30 to 8.30 | > 125 | B (IC50 ratio greater than or equal to 15 fold but lower than 30 fold) |  |  |  | 
Nc1ncc(NC(=O)C(=O)N(Cc2ccc(C(F)(F)F)cn2)[C@@H]2CCc3ccccc32)c2[nH]ncc12 [Compound 8, (R)-N1-(4-amino-1H-pyrazolo[4,3-c]pyridin-7-yl)-N2-(2,3-dihydro-1H-inden-1-yl)-N2-((5-(trifluoromethyl)pyridin-2-yl)methyl)oxalamide] | > 7.00 | > 8.30 | > 8.30 | < 75 | C (IC50 ratio of less than 15 fold) |  |  |  | 
Nc1ncc(NC(=O)C(=O)N(Cc2ccccc2)Cc2ccccn2)c2[nH]ncc12 [Compound 9, N-(4-amino-1H-pyrazolo[4,3-c]pyridin-7-yl)-N′-benzyl-N′-(2-pyridylmethyl)oxamide] | > 7.00 | < 7.30 | > 8.30 | < 75 | A (IC50 ratio greater than or equal to 30 fold) |  |  |  | 
CCc1cc(NC(=O)C(=O)N(Cc2ccc(C(F)(F)F)cn2)C2CCC(C)c3ccccc32)cnc1N (stereo not drawn) [Compound 10, N-(6-amino-5-ethyl-3-pyridyl)-N′-(4-methyltetralin-1-yl)-N′-[[5-(trifluoromethyl)-2-pyridyl]methyl]oxamide] | 6.00 to 7.00 | < 7.30 | 7.30 to 8.30 | 75 to 125 | C (IC50 ratio of less than 15 fold) |  |  |  | 
CCN(Cc1ccc(C(F)(F)F)cn1)C(=O)C(=O)Nc1cnc(N)c2cn[nH]c12 [Compound 11, N-(4-amino-1H-pyrazolo[4,3-c]pyridin-7-yl)-N′-ethyl-N′-[[5-(trifluoromethyl)-2-pyridyl]methyl]oxamide] | > 7.00 | < 7.30 | 7.30 to 8.30 | < 75 | A (IC50 ratio greater than or equal to 30 fold) |  |  |  | 
CC1CCC(N(Cc2ccc(C(F)(F)F)cn2)C(=O)C(=O)Nc2ccn3ccnc3c2)c2ccccc21 (stereo not drawn) [Compound 12, N-imidazo[1,2-a]pyridin-7-yl-N′-(4-methyltetralin-1-yl)-N′-[[5-(trifluoromethyl)-2-pyridyl]methyl]oxamide] | 6.00 to 7.00 | < 7.30 | 7.30 to 8.30 | > 125 | C (IC50 ratio of less than 15 fold) |  |  |  | 
CC(CN(Cc1ccc(C(F)(F)F)cn1)C(=O)C(=O)Nc1cnc(N)c(C2CC2)c1)C1CC1 (stereo not drawn) [Compound 13, N-(6-amino-5-cyclopropyl-3-pyridyl)-N′-(2-cyclopropylpropyl)-N′-[[5-(trifluoromethyl)-2-pyridyl]methyl]oxamide] | 6.00 to 7.00 | < 7.30 | 7.30 to 8.30 | > 125 | A (IC50 ratio greater than or equal to 30 fold) |  |  |  | 
Nc1ncc(NC(=O)C(=O)N(Cc2ccccc2)Cc2ncccn2)c2[nH]ncc12 [Compound 14, N-(4-amino-1H-pyrazolo[4,3-c]pyridin-7-yl)-N′-benzyl-N′-(pyrimidin-2-ylmethyl)oxamide] | > 7.00 | < 7.30 | > 8.30 | 75 to 125 | A (IC50 ratio greater than or equal to 30 fold) |  |  |  | 
